How the values were obtained:
[1] = test system: Human immunodeficiency virus 1; assay: Antiviral activity against HIV1 infected in human assessed as change in CD4 expressing T-cell count from baseline at 400 mg, po BID for 7 days as four modified-release capsules followed by a single dose on day 8 measured on day 9 relative to pooled placebo control; type: functional
[2] = test system: Human immunodeficiency virus 1; assay: Antiviral activity against HIV1 infected in fed human assessed as viral load decay rate as viral log10 RNA copies/ml/day at 800 mg, po administered every day as four enteric-coated tablets followed by a single dose on day 8 measured on day 9; type: functional
[3] = Drug excretion in human urine; type: ADME; details: read-out: Activity
[4] = Terminal half life […] at 300 to 500 mg; type: ADME
[5] = molecular target: T1, Solute carrier family 22 member 12 (Homo sapiens, UniProt Q96S37); assay: Inhibition of human URAT-1 assessed as increase in renal uric acid excretion; design: species or system Kidney
T1 sequence (Q96S37 whole entry): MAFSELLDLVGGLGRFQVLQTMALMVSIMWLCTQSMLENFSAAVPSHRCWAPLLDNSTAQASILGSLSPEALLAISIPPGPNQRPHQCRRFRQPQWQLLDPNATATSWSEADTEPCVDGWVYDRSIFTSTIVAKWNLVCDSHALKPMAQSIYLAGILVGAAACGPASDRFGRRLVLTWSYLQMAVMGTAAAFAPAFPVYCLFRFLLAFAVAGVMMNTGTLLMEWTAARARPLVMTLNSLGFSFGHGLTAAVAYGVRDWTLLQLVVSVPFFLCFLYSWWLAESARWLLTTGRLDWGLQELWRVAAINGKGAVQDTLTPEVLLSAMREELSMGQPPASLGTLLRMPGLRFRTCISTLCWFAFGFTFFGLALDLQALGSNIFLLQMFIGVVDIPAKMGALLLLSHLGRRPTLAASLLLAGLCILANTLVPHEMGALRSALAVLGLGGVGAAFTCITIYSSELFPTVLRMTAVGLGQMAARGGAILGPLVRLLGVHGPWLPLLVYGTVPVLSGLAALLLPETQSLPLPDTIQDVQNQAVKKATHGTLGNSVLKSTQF

[6] = test system: Homo sapiens; assay: Reduction in uric acid level in healthy human serum at 800 mg, po administered every day; type: ADME, organism-based; details: in vivo
[7] = Cmax in fasted human at 1000 mg, po every 24 hrs measured on day 8; type: ADME, organism-based; design: dose 1000 mg, route oral; details: plasma
[8] = Tmax in fasted human plasma at 600 mg; type: ADME, organism-based
[9] = test system: Human immunodeficiency virus 1; assay: Antiviral activity against HIV1 infected in human assessed as change in CD8 expressing T-cell count from baseline at 1000 mg, po administered every day as five enteric-coated tablets followed by a single dose on day 8 measured on day 9 relative to pooled placebo control; type: functional
[10] = Tmax in fasted human plasma at 50 to 300 mg; type: ADME, organism-based
[11] = Drug concentration at steady state in fasted human plasma at 1000 mg, po every 24 hrs measured on day 8; type: ADME, organism-based; details: read-out: Drug uptake
[12] = Plasma protein binding in rat; type: ADME, cell-free; details: read-out: PPB
[13] = Tmax in fasted human at 400 mg, po every 12 hrs measured on day 8; type: ADME, organism-based; details: in vivo
[14] = species on record: Homo sapiens; assay: Cardiotoxicity in healthy human assessed as changes in electrocardiographic QTc interval; type: toxicity, organism-based; details: in vivo
[15] = Renal clearance in dog; type: ADME, organism-based, Canis lupus familiaris, Kidney; details: in vivo, read-out: CL_renal
[16] = test system: Human immunodeficiency virus 1; assay: Antiviral activity against HIV1 infected in human assessed as change in CD4 expressing T-cell count from baseline at 600 mg, po BID for 7 days as four modified-release capsules followed by a single dose on day 8 measured on day 9 relative to pooled placebo control; type: functional
[17] = test system: Human immunodeficiency virus 1; assay: Antiviral activity against HIV1 infected in fasted human assessed as as viral load decay rate as viral log10 RNA copies/ml/day at 1000 mg, po administered every day as five enteric-coated tablets followed by a single dose on day 8 measured on day 9; type: functional
[18] = Cmax in human plasma at 300 mg administered as multiple doses, BID; type: ADME, organism-based; design: dose 300 mg
[19] = Drug excretion in rhesus monkey urine; type: ADME, Macaca mulatta; details: read-out: Activity
[20] = Plasma protein binding in human; type: ADME, cell-free; details: read-out: PPB
[21] = test system: Human immunodeficiency virus 1; assay: Antiviral activity against HIV1 infected in human assessed as change in CD8 expressing T-cell count from baseline at 400 mg, po BID for 7 days as four modified-release capsules followed by a single dose on day 8 measured on day 9 relative to pooled placebo control; type: functional
[22] = Drug concentration at steady state in fasted human plasma at 800 mg, po every 24 hrs measured on day 8; type: ADME, organism-based; details: read-out: Drug uptake
[23] = test system: Human immunodeficiency virus 1; assay: Antiviral activity against HIV1 infected in fasted human assessed as decrease in log10 HIV RNA copies/ml at 1000 mg, po […] followed by a single dose on day 8 measured on day 9 relative to pooled placebo control; type: functional
[24] = Tmax in fasted human at 600 mg, po every 24 hrs measured on day 8; type: ADME, organism-based; details: in vivo
[25] = AUC (24 hrs) in fasted human at 400 mg, po every 24 hrs measured on day 8; type: ADME, organism-based; design: time < 24 hr, dose 400 mg, route oral; details: plasma
[26] = Drug concentration at steady state in fasted human plasma at 400 mg, po every 12 hrs measured on day 8; type: ADME, organism-based; details: read-out: Drug uptake
[27] = Tmax in fasted human at 800 mg, po every 24 hrs measured on day 8; type: ADME, organism-based; details: in vivo
[28] = test system: Human immunodeficiency virus 1; assay: Antiviral activity against HIV1 infected in fasted human assessed as decrease in log10 HIV RNA copies/ml at 800 mg, po […] followed by a single dose on day 8 measured on day 9 relative to pooled placebo control; type: functional
[29] = Tmax in fasted human at 1000 mg, po every 24 hrs measured on day 8; type: ADME, organism-based; details: in vivo
[30] = test system: Human immunodeficiency virus 1; assay: Antiviral activity against HIV1 infected in human assessed as change in CD4 expressing T-cell count from baseline at 800 mg, po administered every day as four enteric-coated tablets followed by a single dose on day 8 measured on day 9 relative to pooled placebo control; type: functional
[31] = Cmax in fasted human plasma at 600 mg, po every 24 hrs measured on day 8; type: ADME, organism-based; design: dose 600 mg, route oral
[32] = Half life in fasted human at 600 mg, po every 24 hrs measured on day 8; type: ADME, organism-based; details: in vivo

In the case of `O=C(CSc1nnc(Br)n1-c1ccc(C2CC2)c2ccccc12)Nc1ccc(C(=O)O)cc1Cl`, the Activity [1] is reported as 19.22 /mm3, the Activity [2] is reported as -0.2 mL⁻¹ and the dose excreted [3] is reported as < 0.06%. The half-life [4] was 10.4 h, the Activity [5] was “Active” and the Activity [6] was 58 µmol/L. The Cmax [7] was 3.7 µg/mL, the Tmax [8] was 4.92 h and the Activity [9] was 71.04 /mm3. For the same compound, the Tmax [10] was 1.25 h, the concentration at 24 h [11] was 0.515 µg/mL and the fraction unbound [12] was < 0.01. The Tmax [13] was 1.5 h, the Activity [14] was “Non-toxic” and the CL renal [15] was ≤ 1 mL/min. The Activity [16] was -14.44 /mm3, the Activity [17] was -0.22 mL⁻¹ and the Cmax [18] was 0.667 µg/mL. For the same compound, the dose excreted [19] was < 0.06%, the fraction unbound [20] was < 0.01 and the Activity [21] was -39.17 /mm3. For the same compound, the concentration at 24 h [22] was 0.31 µg/mL, the Activity [23] was -1.696 mL⁻¹ and the Tmax [24] was 2 h. It also gave an AUC at 24 h [25] of 12.4 µg·h/mL, a concentration at 12 h [26] of 0.505 µg/mL and a Tmax [27] of 3 h. The Activity [28] was -1.619 mL⁻¹, the Tmax [29] was 3 h and the Activity [30] was 100.74 /mm3. The Cmax [31] was 2.42 µg/mL and the half-life [32] was 7.09 h.

Source: ChEMBL document CHEMBL1629701, “Phase 2a randomized controlled trial of short-term activity, safety, and pharmacokinetics of a novel nonnucleoside reverse transcriptase inhibitor, RDEA806, in HIV-1-positive, antiretroviral-naive subjects” (Antimicrob Agents Chemother, 2010)
